Measurements from patent publication US12240851B1, “Pyrido[3′,4′:4,5]pyrrolo[3,2-c]naphthyridine compounds as CK2 inhibitors” (KING FAISAL UNIVERSITY, priority 2023, dated 2025).
pIC50: −log10 of the molar value.

Columns and labels:
[1] = biological target: T1, recombinant human CK2 (RRββ-holoenzyme) (Homo sapiens, UniProt P68400); test: CK2 Kinase Assay (33P-ATP, filter plate); assay type: biochemical; details: final ATP concentration 15 μM, 10 min at 30° C.; read-out: protein kinase CK2 IC50
T1 construct: purchased Millipore
T1 sequence (P68400 whole entry): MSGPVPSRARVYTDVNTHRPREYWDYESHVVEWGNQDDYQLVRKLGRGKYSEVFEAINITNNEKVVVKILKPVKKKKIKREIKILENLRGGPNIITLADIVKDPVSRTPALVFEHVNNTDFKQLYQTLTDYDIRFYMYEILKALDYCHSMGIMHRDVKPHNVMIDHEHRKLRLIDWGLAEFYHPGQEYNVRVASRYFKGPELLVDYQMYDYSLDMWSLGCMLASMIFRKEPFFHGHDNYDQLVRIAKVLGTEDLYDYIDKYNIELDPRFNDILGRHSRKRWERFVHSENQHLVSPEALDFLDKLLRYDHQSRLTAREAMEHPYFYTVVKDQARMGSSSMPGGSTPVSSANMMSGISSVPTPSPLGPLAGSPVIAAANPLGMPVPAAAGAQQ
T1 sequence (P67870 whole entry partner): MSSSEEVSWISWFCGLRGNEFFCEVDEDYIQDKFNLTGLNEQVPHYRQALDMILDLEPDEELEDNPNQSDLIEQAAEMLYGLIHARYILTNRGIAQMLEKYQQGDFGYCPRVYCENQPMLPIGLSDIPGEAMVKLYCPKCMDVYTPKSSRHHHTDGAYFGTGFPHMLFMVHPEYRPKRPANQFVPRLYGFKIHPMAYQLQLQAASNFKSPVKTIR
Protocol: CK2 Kinase Assay was conducted using the protocol as described in Pierre F. et al; J. Med. Chem. 2011, 54, 635-654. The tested compounds in aqueous solution were added at a volume of 10 μL to a reaction mixture comprising 10 μL of assay dilution buffer (ADB; 20 mM MOPS, pH 7.2, 25 mM β-glycerol phosphate, 5 mM EGTA, 1 mM sodium orthovanadate, and 1 mM dithiothreitol), 10 μL of substrate peptide (RRRDDDSDDD, dissolved in ADB at a concentration of 1 mM), 10 μL of recombinant human CK2 (RRββ-holoenzyme, 25 ng dissolved in ADB; Millipore). Reactions were initiated by the addition of 10 μL of ATP solution (90% 75 mMMgCl2, 75 μM ATP (final ATP concentration:15 μM) dissolved in ADB; 10% [γ-33P] ATP (stock 1mCi/100 μL; 3000 Ci/mmol (Perkin-Elmer) and maintained for 10 min at 30° C. The reactions were quenched with 100 μL of 0.75% phosphoric acid and then transferred to and filtered through a phosphor cellulose filter plate (Millipore). After washing each well five times with 0.75% phosphoric acid, the plate was dried under vacuum for 5 min and, following the addition of 15 μL of scintillation fluid to each well, the residual radioactivity was measured using a Wallac […]. The IC50 values were derived from eight concentrations of test inhibitors.

H1299 (lung) = test: In vitro cytotoxic activity assay (MTT), H1299; assay type: cell-based; details: Homo sapiens, NCI-H1299, 96 hours exposure, read-out: IC50, 50% inhibition of cell proliferation
Protocol: (§1) Compounds 1-15 were screened for their in vitro cytotoxic activity utilizing a 3-(4,5-dimethyl-thiazol-2-yl)-2,5-diphenyltetrazolium bromide (MTT) assay against selected cancer human cell lines consisting of PC3 (prostate), HCT116 (colon), A375 (melanoma), H1299 (lung), MIAPaCa-2 (pancreas), HL60 (leukemia), MCF7 (breast), MDA-MB-231 (breast) (T. Mosmann, J. Immunol. Meth., 1983, 65, 55-63). The cells were cultured at 37° C. in RMPI1640 medium supplemented with 10% fetal bovine serum, 50 IU/mL penicillin, and 50 µg/mL streptomycin in a 5% CO2 incubator. All cells were sub-cultured 3 times/week by trypsinisation. Viable cells were seeded and allowed to adhere for 12 h before a test drug was added in 96-well plates at an initial density of 1.0×10^5 cells/mL. Tumour cell lines were separately exposed to various concentrations of the tested compounds followed by incubation at a temperature of 37° C. during 96 h inside a medium of fresh RMPI 1640. Cells were subsequently incubated at 37° C. using MTT at 0.5 mg/mL during 4 h. After removal of supernatant, formazan crystals were dissolved in isopropanol and the optical density was measured at 570 nm. CX-4945 was used as a positive control.

MIAPaCa-2 (pancreas) = test: In vitro cytotoxic activity assay (MTT), MIAPaCa-2; assay type: cell-based; details: Homo sapiens, MIA PaCa-2, 96 hours exposure, read-out: IC50, 50% inhibition of cell proliferation
Protocol: as §1

MCF7 (breast) = test: In vitro cytotoxic activity assay (MTT), MCF7; assay type: cell-based; details: Homo sapiens, 96 hours exposure, read-out: IC50, 50% inhibition of cell proliferation
Protocol: as §1

MDA-MB-231 (breast) = test: In vitro cytotoxic activity assay (MTT), MDA-MB-231; assay type: cell-based; details: Homo sapiens, 96 hours exposure, read-out: IC50, 50% inhibition of cell proliferation
Protocol: as §1

A375 (melanoma) = test: In vitro cytotoxic activity assay (MTT), A375; assay type: cell-based; details: Homo sapiens, A-375, 96 hours exposure, read-out: IC50, 50% inhibition of cell proliferation
Protocol: as §1

PC3 (prostate) = test: In vitro cytotoxic activity assay (MTT), PC3; assay type: cell-based; details: Homo sapiens, 96 hours exposure, read-out: IC50, 50% inhibition of cell proliferation
Protocol: as §1

HCT116 (colon) = test: In vitro cytotoxic activity assay (MTT), HCT116; assay type: cell-based; details: Homo sapiens, HCT-116, 96 hours exposure, read-out: IC50, 50% inhibition of cell proliferation
Protocol: as §1

HL60 (leukemia) = test: In vitro cytotoxic activity assay (MTT), HL60; assay type: cell-based; details: Homo sapiens, HL-60, 96 hours exposure, read-out: IC50, 50% inhibition of cell proliferation
Protocol: as §1

Clc1cccc(Nc2nc3c4cnccc4[nH]c3c3cnccc23)c1 [Compound (1), N-(3-chlorophenyl)-11H-pyrido[3′,4′:4,5]pyrrolo[3,2-c][2,6]naphthyridin-5-amine] was tested, and the pIC50 [1] was 7.68, the pIC50 (H1299 (lung)) was 5.96 and the pIC50 (MIAPaCa-2 (pancreas)) was 5.85. For the same compound, the pIC50 (MCF7 (breast)) was 5.60, the pIC50 (MDA-MB-231 (breast)) was 5.54 and the pIC50 (A375 (melanoma)) was 5.40. It also gave a pIC50 (PC3 (prostate)) of 6.10, a pIC50 (HCT116 (colon)) of 5.82 and a pIC50 (HL60 (leukemia)) of 5.49.
